Reference: US12122785B2, “Substituted pyridines, pyridazines, pyrimidines, and 1,2,4-triazines as TYK2 inhibitors” (Sudo Biosciences Limited, priority 2021, dated 2024)

Experiments:
[1] = tested on: TYK2 pseudokinase (JH2); IL-23-stimulated HEK-Blue IL-23 cells; assay: HEK-Blue IL-23 reporter assay (STAT3-inducible SEAP) for profiling TYK2 pseudokinase (JH2) inhibition; format: cell-based; conditions: 10 ng/mL human recombinant IL-23, SEAP readout, read-out: IL23 (TYK2 inhibitory activity, IC50)
Description: (§1) Example B-1: HEK-Blue™ IL-23 and IFNα/β Reporter Assays for Profiling TYK2 Pseudokinase (JH2) Inhibition
(§2) HEK-Blue™ IL-23 and IFNα/β cells with a stably-integrated cytokine receptor and STAT3 or STAT1 express STAT-inducible secreted embryonic alkaline phosphatase (SEAP) reporter gene upon cytokine stimulation. These cells are plated in DMEM (Gibco) containing 10% heat-inactivated FBS (Gibco) and 100 U/mL PenStrep (Gibco) at 37° C. under 5% CO2 conditions for 20-22 hours. The cells are then pretreated with serially diluted test compounds for 60 min prior to stimulation with either 10 ng/mL human recombinant IL-23 (Miltenyl Biotech) or 1 ng/mL human recombinant IFNα (InvivoGen) for 22-24 hours for IL-23 or 16-18 h for IFNα. SEAP induction is measured using the QUANTI Blue™ Solution (InvivoGen) according to the manufacturer's instructions.

[2] = tested on: TYK2 pseudokinase (JH2); IFNα-stimulated HEK-Blue IFNα/β cells; assay: HEK-Blue IFNα/β reporter assay (STAT1-inducible SEAP) for profiling TYK2 pseudokinase (JH2) inhibition; format: cell-based; conditions: 1 ng/mL human recombinant IFNα, SEAP readout, read-out: IFNα (TYK2 inhibitory activity, IC50)
Description: as §1, §2

[3] = molecular target: T1, TYK2 kinase domain (JH1) (Homo sapiens, UniProt P29597); assay: HTRF-based selectivity assay, TYK2 catalytic domain; format: biochemical; conditions: 20 μM ATP
T1 construct: recombinant purified His or GST-tagged catalytic domain for each enzyme; made in house
T1 sequence (P29597 897-1176 limits assumed): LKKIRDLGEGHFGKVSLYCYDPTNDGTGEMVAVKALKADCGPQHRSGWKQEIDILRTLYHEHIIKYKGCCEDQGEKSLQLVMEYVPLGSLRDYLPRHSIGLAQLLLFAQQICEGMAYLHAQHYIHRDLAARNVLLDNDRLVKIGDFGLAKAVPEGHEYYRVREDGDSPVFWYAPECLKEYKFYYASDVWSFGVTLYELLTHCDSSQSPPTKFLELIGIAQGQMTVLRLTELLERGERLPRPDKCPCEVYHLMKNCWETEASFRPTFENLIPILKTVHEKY
Description: (§3) Example B-2: HTRF-Based Selectivity Assay
(§4) The ability of compounds to inhibit the activity of JAK1, JAK2, JAK3 and TYK2 is measured using a recombinant purified His or GST-tagged catalytic domain for each enzyme (JAK1, JAK2 and TYK2 are generated in-house; JAK3 was purchased from Carna biosciences, Cat #08-046) in an HTRF format biochemical assay. The reactions employs a commercial peptide substrate from Cisbio (Cat #62TK0PEC). The basic assay protocol is as follows: first, 2.5 μL of diluted compounds (4×) in DMSO are dispensed into a 384-well Optiplate. Next, 2.5 μL of enzyme (final concentrations for enzymes are: TYK2—700 ng/mL, JAK1—80.6 ng/mL, JAK2—2.1 ng/mL and JAK3—171.8 ng/mL) is added and incubated at RT for 5-20 min. Finally, 5 μl of mixture of 2×ATP [Final concentration 20 μM for TYK2, 21.43 μM for JAK1, 14.7 μM for JAK2 and 2.12 μM for JAK3]+2× Substrate [Final concentration 217 nM for TYK2, 454.7 nM for JAK1, 200 nM for JAK2 and 257.4 nM for JAK3] is added to 384 well Optiplate. Composition of Kinase assay buffer used in the assay is as follows: HEPES 50 mM, EGTA 1 mM, MgCl2 10 mM, DTT 2 mM, Tween-20 0.01% and water. Then the plates are shaken and then incubated at 26.5° C. for 60 min.

[4] = molecular target: T2, JAK1 kinase domain (JH1) (Homo sapiens, UniProt P23458); assay: HTRF-based selectivity assay, JAK1 catalytic domain; format: biochemical; conditions: 21.43 μM ATP, read-out: JAK-JHI (IC50)
T2 construct: recombinant purified His or GST-tagged catalytic domain for each enzyme; made in house
Description: as §3, §4

[5] = molecular target: T3, JAK2 kinase domain (JH1) (Homo sapiens, UniProt O60674); assay: HTRF-based selectivity assay, JAK2 catalytic domain; format: biochemical; conditions: 14.7 μM ATP
T3 construct: recombinant purified His or GST-tagged catalytic domain for each enzyme; made in house
Description: as §3, §4

[6] = tested on: IL-2-stimulated HEK-Blue IL-2 reporter cells; assay: HEK-Blue IL-2 reporter assay (STAT5-inducible SEAP) for determining selectivity; format: cell-based; conditions: 4 ng/mL human recombinant IL-2, 24 hours
Description: (§5) Example B-3: HEK-Blue™ IL-2 and IFNγ Reporter Assays for Determining Selectivity
(§6) HEK-Blue™ IL-2 and IFNγ reporter cells with a stably-integrated cytokine receptor and STAT5 or STAT1 express STAT-inducible secreted embryonic alkaline phosphatase (SEAP) reporter gene upon cytokine stimulation. These cells were plated in DMEM (Gibco) containing 10% heat-inactivated FBS (Gibco) and 100 U/mL PenStrep (Gibco) at 37° C. under 5% CO2 conditions for 20-22 hours. The cells were then pretreated with serially diluted test compounds for 60 min prior to stimulation with either 4 ng/mL human recombinant IL-2 (Miltenyl Biotech) or 50 ng/mL human recombinant IFNγ (InvivoGen) for 24 hours. SEAP induction was measured using the QUANTI-Blue™ Solution (InvivoGen) according to the manufacturer's instructions.

[7] = tested on: IFNγ-stimulated HEK-Blue IFNγ reporter cells; assay: HEK-Blue IFNγ reporter assay (STAT1-inducible SEAP) for determining selectivity; format: cell-based; conditions: 50 ng/mL human recombinant IFNγ, 24 hours, read-out: IFN-γ SEAP selectivity assay IC50
Description: as §5, §6

T3 sequence (O60674 849-1124 limits assumed): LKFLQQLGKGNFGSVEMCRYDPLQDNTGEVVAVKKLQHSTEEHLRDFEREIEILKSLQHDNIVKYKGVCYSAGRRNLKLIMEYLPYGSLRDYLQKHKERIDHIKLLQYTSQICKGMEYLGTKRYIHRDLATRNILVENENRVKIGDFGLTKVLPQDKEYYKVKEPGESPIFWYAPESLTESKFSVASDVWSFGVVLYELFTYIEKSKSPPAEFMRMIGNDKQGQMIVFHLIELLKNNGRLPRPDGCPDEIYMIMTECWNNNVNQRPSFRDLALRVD
T2 sequence (P23458 875-1153 limits assumed): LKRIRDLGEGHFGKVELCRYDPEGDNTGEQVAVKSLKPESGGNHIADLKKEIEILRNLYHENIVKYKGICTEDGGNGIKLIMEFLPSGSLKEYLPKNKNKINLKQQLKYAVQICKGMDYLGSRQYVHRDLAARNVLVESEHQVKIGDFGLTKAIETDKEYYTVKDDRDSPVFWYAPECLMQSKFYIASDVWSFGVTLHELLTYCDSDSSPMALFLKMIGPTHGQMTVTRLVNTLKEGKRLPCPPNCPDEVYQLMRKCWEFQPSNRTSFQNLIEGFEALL

Row | SMILES | IC50 [1] [nM] | IC50 [2] [nM] | IC50 [3] [nM] | IC50 [4] [nM] | IC50 [5] [nM] | IC50 [6] [nM] | IC50 [7] [nM]
1 | [2H]C([2H])([2H])NC(=O)c1cnc(NC(=O)NC)cc1Nc1cccc2c1N(C)Cc1cn(C)nc1-2 [Compound 25, 4-((2,5-dimethyl-4,5-dihydro-2H-pyrazolo[4,3-c]quinolin-6-yl)amino)-N-(methyl-d3)-6-(3-methylureido)nicotinamide] | < 30 | < 30 | > 1000 | > 1000 | > 1000 | > 1000 | > 1000
2 | [2H]C([2H])([2H])NC(=O)c1cnc(NC(=O)C2CC2)cc1Nc1cccc2c1N(C)Cc1cn(C3COC3)nc1-2 [Compound 29, 6-(cyclopropanecarboxamido)-N-(methyl-d3)-4-((5-methyl-2-(oxetan-3-yl)-4,5-dihydro-2H-pyrazolo[4,3-c]quinolin-6-yl)amino)nicotinamide] | < 30 | < 30 | > 1000 | > 1000 | > 1000 | > 1000 | > 1000
3 | [2H]C([2H])([2H])NC(=O)c1nnc(NC(=O)C2CC2)cc1Nc1cccc2c1N(C)C([2H])([2H])c1ccnn1-2 [Compound 58, 6-(cyclopropanecarboxamido)-N-(methyl-d3)-4-((5-methyl-4,5-dihydropyrazolo[1,5-a]quinoxalin-6-yl-4,4-d2)amino)pyridazine-3-carboxamide] | < 30 | < 30 |  |  |  | > 1000 | 300 to 1000
4 | [2H]C([2H])([2H])NC(=O)c1cnc(NC(=O)C2CC2)cc1Nc1cccc2c1N(C)C([2H])([2H])c1ccnn1-2 [Compound 59, 6-(cyclopropanecarboxamido)-N-(methyl-d3)-4-((5-methyl-4,5-dihydropyrazolo[1,5-a]quinoxalin-6-yl-4,4-d2)amino)nicotinamide] | < 30 | < 30 |  |  |  | > 1000 | 30 to 300
5 | [2H]C([2H])([2H])NC(=O)c1cnc(N2CCN(C(C)C)C2=O)cc1Nc1cccc2c1N(C)C([2H])([2H])c1cn(C)nc1-2 [Compound 63, 4-((2,5-dimethyl-4,5-dihydro-2H-pyrazolo[4,3-c]quinolin-6-yl-4,4-d2)amino)-6-(3-isopropyl-2-oxoimidazolidin-1-yl)-N-(methyl-d3)nicotinamide] | < 30 | 30 to 300 |  |  |  | > 1000 | > 1000
6 | [2H]C([2H])([2H])NC(=O)c1cnc(NC(=O)C2CC2)cc1Nc1nccc2c1N(C)Cc1cn(C)nc1-2 [Compound 64, 6-(cyclopropanecarboxamido)-4-((2,5-dimethyl-4,5-dihydro-2H-pyrazolo[4,3-c][1,7]naphthyridin-6-yl)amino)-N-(methyl-d3)nicotinamide] | < 30 | < 30 | > 1000 | > 1000 | > 1000 | > 1000 | 300 to 1000
7 | [2H]C([2H])([2H])NC(=O)c1nnc(NC(=O)C2CC2)cc1Nc1nccc2c1N(C([2H])([2H])[2H])Cc1cn(C)nc1-2 [Compound 67, 6-(cyclopropanecarboxamido)-N-(methyl-d3)-4-((2-methyl-5-(methyl-d3)-4,5-dihydro-2H-pyrazolo[4,3-c][1,7]naphthyridin-6-yl)amino)pyridazine-3-carboxamide] | < 30 | < 30 | > 1000 | > 1000 | > 1000 |  | 
8 | [2H]C([2H])([2H])NC(=O)c1cnc(NC(=O)C2CC2)cc1Nc1nccc2c1N(C)Cc1cc(C)nn1-2 [Compound 71, 6-(cyclopropanecarboxamido)-4-((2,5-dimethyl-4,5-dihydropyrazolo[1,5-a]pyrido[3,4-e]pyrazin-6-yl)amino)-N-(methyl-d3)nicotinamide] | < 30 | < 30 |  |  |  | > 1000 | > 1000
9 | [2H]C([2H])([2H])NC(=O)c1nnc(NC(=O)C2CC2)cc1Nc1nccc2c1N(C)C([2H])([2H])c1cc(C)nn1-2 [Compound 73, 6-(cyclopropanecarboxamido)-4-((2,5-dimethyl-4,5-dihydropyrazolo[1,5-a]pyrido[3,4-e]pyrazin-6-yl-4,4-d2)amino)-N-(methyl-d3)pyridazine-3-carboxamide] | < 30 | < 30 |  |  |  | > 1000 | 30 to 300
10 | [2H]C([2H])([2H])NC(=O)c1nnc(NC(=O)NC)cc1Nc1nccc2c1N(C)C([2H])([2H])c1cn(C)nc1-2 [Compound 74, 4-((2,5-dimethyl-4,5-dihydro-2H-pyrazolo[4,3-c][1,7]naphthyridin-6-yl-4,4-d2)amino)-N-(methyl-d3)-6-(3-methylureido)pyridazine-3-carboxamide] | < 30 | < 30 |  |  |  | > 1000 | 30 to 300
11 | [2H]C([2H])([2H])NC(=O)c1nnc(NC(=O)N(C)C)cc1Nc1nccc2c1N(C)C([2H])([2H])c1cn(C)nc1-2 [Compound 75, 4-((2,5-dimethyl-4,5-dihydro-2H-pyrazolo[4,3-c][1,7]naphthyridin-6-yl-4,4-d2)amino)-6-(3,3-dimethylureido)-N-(methyl-d3)pyridazine-3-carboxamide] | < 30 | 30 to 300 |  |  |  | > 1000 | > 1000
12 | [2H]C([2H])([2H])NC(=O)c1cnc(NC(=O)C2CC2)cc1Nc1nccc2c1N(C)C([2H])([2H])c1cc(C)nn1-2 [Compound 76, 6-(cyclopropanecarboxamido)-4-((2,5-dimethyl-4,5-dihydropyrazolo[1,5-a]pyrido[3,4-e]pyrazin-6-yl-4,4-d2)amino)-N-(methyl-d3)nicotinamide] | < 30 | < 30 |  |  |  | > 1000 | 300 to 1000
13 | [2H]C([2H])([2H])NC(=O)c1cnc(NC(=O)C2CC2)cc1Nc1nccc2c1N(C)C([2H])([2H])c1cn(C)nc1-2 [Compound 77, 6-(cyclopropanecarboxamido)-4-((2,5-dimethyl-4,5-dihydro-2H-pyrazolo[4,3-c][1,7]naphthyridin-6-yl-4,4-d2)amino)-N-(methyl-d3)nicotinamide] | < 30 | < 30 |  |  |  | > 1000 | 300 to 1000
14 | [2H]C([2H])([2H])NC(=O)c1nnc(NC(=O)NC)cc1Nc1nccc2c1N(C)Cc1cc(C)nn1-2 [Compound 79, 4-((2,5-dimethyl-4,5-dihydropyrazolo[1,5-a]pyrido[3,4-e]pyrazin-6-yl)amino)-N-(methyl-d3)-6-(3-methylureido)pyridazine-3-carboxamide] | < 30 | 30 to 300 |  |  |  | > 1000 | > 1000
